Test results from patent publication US9073967B2, “High salt-resistance antibacterial peptide and method for producing the same” (NATIONAL TSING HUA UNIVERSITY, priority 2011, dated 2015).
≈ marks a conversion by molar mass, not a printed value. Entries after “also recorded” stand apart in the source; their conditions may differ. Where a SMILES comes first, the peptide text is derived from it. [ ]: non-standard residue; d: D form. 2Nal = N[C@@H](Cc1ccc2ccccc2c1)C(=O)O

Assays:
[1] = system: S. aureus ATCC 25923; test: Antibacterial ability in different MgCl2 concentration; type: cell-based
[2] = system: P. arugenosa ATCC 9027; test: as above; type: cell-based
[3] = system: P. arugenosa ATCC 27853; test: as above; type: cell-based
[4] = system: E. coli ATCC 25922; test: as above; type: cell-based
[5] = system: S. aureus ATCC 29213; test: as above; type: cell-based
[6] = system: C. tropicalis ATCC 13803 YLO86
[7] = system: E. coli ATCC 25922; test: Antibacterial ability in different salt (NaCl) concentration, LYM medium
Description: (§4) All bacteria strains of above microbes were cultured in LYM medium. […] The NaCl concentrations in LYM were divided into four groups of 50 mM, 100 mM, 200 mM, 300 mM and the microbes were cultured in the four group of LYM and diluted to a 10^4 CFU/ml bacterial solution. Then added 100 μl of the bacterial solution into 96-well culture dish and added different concentration of antibacterial peptides P113, Phe-P113, Nal-P113 or Bip-P113 to evaluate the antibacterial ability in 50 mM, 100 mM, 200 mM, 300 mM concentration of NaCl. (Note: In addition to NaCl, the LYM medium also contains 5.4 mM KCl, 5.6 mM Na2HPO4, 0.5 mM MgSO4, and 1.0 mM sodium citrate. Besides, 0.4 mg of ZnCl2, 2.0 mg of FeCl3.6H2O, 0.1 mg of CuSO4.5H2O, 0.1 mg of MnSO4.H2O, 0.1 mg of Na2B4O7.10H2O, 700 mg of amino acid mixtures without tryptophan (Clontech), and 20 mg of L-Tryptophan were added per liter of medium. Then added moderate amount of glucose, amino acid, and vitamins mixture from the RPM1-1640 Select-Amine Kit)

[8] = system: Staphylococcus aureus strains ATCC 25923; test: Antibacterial activity assay, NCCLS microdilution MIC in MHB; type: cell-based
Description: (§1) For testing the antibacterial ability of Phe-P113, Nal-P113 and Bip-P113 in different salt concentration, we use Antibacterial activity assay to perform the test. Three bacteria strains are used: Eschericha coli strains (ATCC 25922), Staphylococcus aureus strains (ATCC 25923, 29213 and 19636, methicillin-resistant) and Pseudomonas aeruginosa strains (ATCC 27853 and 9027, ampicillin-resistant).
(§2) The microdilution method of National Committee for Clinical Laboratory Standards (NCCLS) is used to evaluate ‘The minimal inhibition concentration (MIC)’. The minimum concentration that can inhibit 90% or more microbes is the ‘minimal inhibition concentration’.
(§3) In the microdilution method, the 1 μl peptide solution (The concentration is between the range of 5000 μg/ml to 78.1 μg/ml) and the 99 μl inoculums (5×10^5 CFU/ml) is mixed incubated in 96-well culture dish coated with polyethylene under 37° C. for 16 hr. Then evaluated the turbidity in O.D.600 by ELISA plate reader (Thermo Max, Molecular Devices, Sunnyvale, Calif.). Take the Muller-Hinton Broth (MHB) and inoculums suspension with adding peptides as negative and positive control group relatively. The result of MIC is the minimum concentration of peptides that can inhibit the bacteria growth (equal to or more than 90%).

[9] = system: Pseudomonas aeruginosa strains ATTC 9027; test: as above; type: cell-based
Description: as §1, §2, §3

[10] = system: Staphylococcus aureus strains ATCC 19636; test: as above; type: cell-based
Description: as §1, §2, §3

[11] = system: Staphylococcus aureus strains ATCC 29213; test: as above; type: cell-based
Description: as §1, §2, §3

[12] = system: Eschericha coli strains ATCC 25922; test: as above; type: cell-based
Description: as §1, §2, §3

[13] = system: Pseudomonas aeruginosa strains ATCC 27853; test: as above; type: cell-based
Description: as §1, §2, §3

[14] = system: S. aureus ATCC 19636; test: Antibacterial ability in different salt (NaCl) concentration, LYM medium
Description: as §4

[15] = system: P. arugenosa ATCC 9027; test: as above
Description: as §4

[16] = system: S. aureus ATCC 25923; test: as above
Description: as §4

[17] = system: P. arugenosa ATCC 27853; test: as above
Description: as §4

[18] = system: S. aureus ATCC 29213; test: as above
Description: as §4

[19] = system: Bacteria strains; test: Antibacterial ability in different salt concentration, overall statement; settings: different concentration of NaCl / salt
Description: as §4

[20] = system: S. aureus ATCC 19636; test: Antibacterial ability in different MgCl2 concentration; type: cell-based

C[C@H](N)C(=O)N[C@@H](CCCCN)C(=O)N[C@@H](CCCNC(=N)N)C(=O)N[C@@H](Cc1ccc2ccccc2c1)C(=O)N[C@@H](Cc1ccc2ccccc2c1)C(=O)NCC(=O)N[C@@H](Cc1ccc(O)cc1)C(=O)N[C@@H](CCCCN)C(=O)N[C@@H](CCCNC(=N)N)C(=O)N[C@@H](CCCCN)C(=O)N[C@@H](Cc1ccccc1)C(=O)N[C@@H](Cc1ccc2ccccc2c1)C(N)=O [Nal-P113] (H-AKR[2Nal][2Nal]GYKRKF[2Nal]-NH2; N-terminus and C-terminus assumed)
antibacterial ability (MIC) ([1]; Control group): 1.56 µg/mL
antibacterial ability (MIC) ([1]; MgCl2 0.5 mM): 3.12 µg/mL
antibacterial ability (MIC) ([1]; MgCl2 1.5 mM): 3.12 µg/mL
antibacterial ability (MIC) ([1]; MgCl2 2.5 mM): 3.12 µg/mL
antibacterial ability (MIC) ([2]; Control group): 3.12 µg/mL
antibacterial ability (MIC) ([2]; MgCl2 0.5 mM): 6.25 µg/mL
antibacterial ability (MIC) ([2]; MgCl2 1.5 mM): 6.25 µg/mL
antibacterial ability (MIC) ([2]; MgCl2 2.5 mM): 12.5 µg/mL
antibacterial ability (MIC) ([3]; Control group): 1.56 µg/mL
antibacterial ability (MIC) ([3]; MgCl2 0.5 mM): 3.12 µg/mL
antibacterial ability (MIC) ([3]; MgCl2 1.5 mM): 3.21 µg/mL
antibacterial ability (MIC) ([3]; MgCl2 2.5 mM): 6.25 µg/mL
antibacterial ability (MIC) ([4]; Control group): 3.12 µg/mL
antibacterial ability (MIC) ([4]; MgCl2 0.5 mM): 3.12 µg/mL
antibacterial ability (MIC) ([4]; MgCl2 1.5 mM): 6.25 µg/mL
antibacterial ability (MIC) ([4]; MgCl2 2.5 mM): 12.5 µg/mL
antibacterial ability (MIC) ([5]; Control group): 1.56 µg/mL
antibacterial ability (MIC) ([5]; MgCl2 0.5 mM): 1.56 µg/mL
antibacterial ability (MIC) ([5]; MgCl2 1.5 mM): 1.56 µg/mL
antibacterial ability (MIC) ([5]; MgCl2 2.5 mM): 1.56 µg/mL
MIC [6]: 6.25 µg/mL (≈ 3.58 µM)
antibacterial ability (MIC) ([7]; NaCl 50 mM): 3.125
antibacterial ability (MIC) ([7]; NaCl 100 mM): 12.5
antibacterial ability (MIC) ([7]; NaCl 200 mM): 25
antibacterial ability (MIC) ([7]; NaCl 300 mM): 50
minimal inhibition concentration (MIC) [8]: 6.25
minimal inhibition concentration (MIC) [9]: 50
minimal inhibition concentration (MIC) [10]: 6.25
minimal inhibition concentration (MIC) [11]: 6.25
minimal inhibition concentration (MIC) [12]: 12.5
minimal inhibition concentration (MIC) [13]: 50
antibacterial ability (MIC) ([14]; NaCl 50 mM): 12.5
antibacterial ability (MIC) ([14]; NaCl 100 mM): 25
antibacterial ability (MIC) ([14]; NaCl 200 mM): 50
antibacterial ability (MIC) ([14]; NaCl 300 mM): 50
antibacterial ability (MIC) ([15]; NaCl 50 mM): 6.25
antibacterial ability (MIC) ([15]; NaCl 100 mM): 50
antibacterial ability (MIC) ([15]; NaCl 200 mM): 50
antibacterial ability (MIC) ([15]; NaCl 300 mM): >50
antibacterial ability (MIC) ([16]; NaCl 50 mM): 1.56
antibacterial ability (MIC) ([16]; NaCl 100 mM): 3.125
antibacterial ability (MIC) ([16]; NaCl 200 mM): 12.5
antibacterial ability (MIC) ([16]; NaCl 300 mM): 50
antibacterial ability (MIC) ([17]; NaCl 50 mM): 1.56
antibacterial ability (MIC) ([17]; NaCl 100 mM): 12.5
antibacterial ability (MIC) ([17]; NaCl 200 mM): 50
antibacterial ability (MIC) ([17]; NaCl 300 mM): >50
antibacterial ability (MIC) ([18]; NaCl 50 mM): 1.56
antibacterial ability (MIC) ([18]; NaCl 100 mM): 3.125
antibacterial ability (MIC) ([18]; NaCl 200 mM): 6.25
antibacterial ability (MIC) ([18]; NaCl 300 mM): 25
antibacterial ability in different concentration of salt (in words) [19]: better than P-113; also recorded: remains their activity of antibacterial
antibacterial ability (MIC) ([20]; Control group): 6.25 µg/mL
antibacterial ability (MIC) ([20]; MgCl2 0.5 mM): 12.5 µg/mL
antibacterial ability (MIC) ([20]; MgCl2 1.5 mM): 12.5 µg/mL
antibacterial ability (MIC) ([20]; MgCl2 2.5 mM): 25 µg/mL

C[C@H](N)C(=O)N[C@@H](CCCCN)C(=O)N[C@@H](CCCNC(=N)N)C(=O)N[C@@H](Cc1c[nH]cn1)C(=O)N[C@@H](Cc1c[nH]cn1)C(=O)NCC(=O)N[C@@H](Cc1ccc(O)cc1)C(=O)N[C@@H](CCCCN)C(=O)N[C@@H](CCCNC(=N)N)C(=O)N[C@@H](CCCCN)C(=O)N[C@@H](Cc1ccccc1)C(=O)N[C@@H](Cc1c[nH]cn1)C(N)=O [P113, AKRHHGYKRKFH-NH2 (SEQ ID NO: 1)] (H-AKRHHGYKRKFH-NH2; N-terminus assumed)
antibacterial ability (MIC) ([1]; Control group): 12.5 µg/mL
antibacterial ability (MIC) ([1]; MgCl2 0.5 mM): 50 µg/mL
antibacterial ability (MIC) ([1]; MgCl2 1.5 mM): 50 µg/mL
antibacterial ability (MIC) ([1]; MgCl2 2.5 mM): 50 µg/mL
antibacterial ability (MIC) ([2]; Control group): 12.5 µg/mL
antibacterial ability (MIC) ([2]; MgCl2 0.5 mM): > 50 µg/mL
antibacterial ability (MIC) ([2]; MgCl2 1.5 mM): > 50 µg/mL
antibacterial ability (MIC) ([2]; MgCl2 2.5 mM): > 50 µg/mL
antibacterial ability (MIC) ([3]; Control group): 25 µg/mL
antibacterial ability (MIC) ([3]; MgCl2 0.5 mM): 50 µg/mL
antibacterial ability (MIC) ([3]; MgCl2 1.5 mM): 50 µg/mL
antibacterial ability (MIC) ([3]; MgCl2 2.5 mM): 50 µg/mL
antibacterial ability (MIC) ([4]; Control group): 12.5 µg/mL
antibacterial ability (MIC) ([4]; MgCl2 0.5 mM): 12.5 µg/mL
antibacterial ability (MIC) ([4]; MgCl2 1.5 mM): 25 µg/mL
antibacterial ability (MIC) ([4]; MgCl2 2.5 mM): 25 µg/mL
antibacterial ability (MIC) ([5]; Control group): 12.5 µg/mL
antibacterial ability (MIC) ([5]; MgCl2 0.5 mM): 12.5 µg/mL
antibacterial ability (MIC) ([5]; MgCl2 1.5 mM): 25 µg/mL
antibacterial ability (MIC) ([5]; MgCl2 2.5 mM): 25 µg/mL
antibacterial ability (MIC) ([7]; NaCl 50 mM): 50
antibacterial ability (MIC) ([7]; NaCl 100 mM): 50
antibacterial ability (MIC) ([7]; NaCl 200 mM): >50
antibacterial ability (MIC) ([7]; NaCl 300 mM): >50
minimal inhibition concentration (MIC) [8]: >50
minimal inhibition concentration (MIC) [9]: >50
minimal inhibition concentration (MIC) [10]: >50
minimal inhibition concentration (MIC) [11]: >50
minimal inhibition concentration (MIC) [12]: >50
minimal inhibition concentration (MIC) [13]: >50
antibacterial ability (MIC) ([14]; NaCl 50 mM): 50
antibacterial ability (MIC) ([14]; NaCl 100 mM): 50
antibacterial ability (MIC) ([14]; NaCl 200 mM): >50
antibacterial ability (MIC) ([14]; NaCl 300 mM): >50
antibacterial ability (MIC) ([15]; NaCl 50 mM): 50
antibacterial ability (MIC) ([15]; NaCl 100 mM): 50
antibacterial ability (MIC) ([15]; NaCl 200 mM): >50
antibacterial ability (MIC) ([15]; NaCl 300 mM): >50
antibacterial ability (MIC) ([16]; NaCl 50 mM): 50
antibacterial ability (MIC) ([16]; NaCl 100 mM): 50
antibacterial ability (MIC) ([16]; NaCl 200 mM): >50
antibacterial ability (MIC) ([16]; NaCl 300 mM): >50
antibacterial ability (MIC) ([17]; NaCl 50 mM): 50
antibacterial ability (MIC) ([17]; NaCl 100 mM): 50
antibacterial ability (MIC) ([17]; NaCl 200 mM): >50
antibacterial ability (MIC) ([17]; NaCl 300 mM): >50
antibacterial ability (MIC) ([18]; NaCl 50 mM): 50
antibacterial ability (MIC) ([18]; NaCl 100 mM): 50
antibacterial ability (MIC) ([18]; NaCl 200 mM): >50
antibacterial ability (MIC) ([18]; NaCl 300 mM): >50
antibacterial ability (MIC) ([20]; Control group): 50 µg/mL
antibacterial ability (MIC) ([20]; MgCl2 0.5 mM): > 50 µg/mL
antibacterial ability (MIC) ([20]; MgCl2 1.5 mM): > 50 µg/mL
antibacterial ability (MIC) ([20]; MgCl2 2.5 mM): > 50 µg/mL
